The source of these data is US9452985B2, “Tau imaging probe” (GE Healthcare Limited, priority 2010, dated 2016).

Assay [1] has as its system neurofibrillary tangles. In words: Staining test on brain section of Alzheimer's disease patients. The class given is binding, human. As to conditions: 100 μM solution in 50% ethanol, 10 minutes, fluorescence microscope. An excerpt:
The procedure of staining test on the compounds of the present invention on the brain section of Alzheimer's disease patients is described below:
(1) We used the brain specimens of the temporal lobe or hippocampus from patients who were definitely diagnosed as having Alzheimer's disease pathology. The specimens were obtained from Choju Medical Institute, Fukushimura Hospital, our collaborating research institute, and the consent for use for research purposes was obtained from the patients' bereaved family (Fukushimura Hospital, Ethics Committee Approval No. 20).
(2) The paraffin-embedded brain tissue was sliced to 6 or 8 μm thickness, extended on a slide glass, and dried. The paraffinized brain section was deparaffinized by washing with xylene for 10 minutes×2, 100% ethanol for 5 minutes×2, 90% ethanol for 5 minutes, and running water for 10 minutes in this order.
(3) As a pretreatment for staining with the compounds of the present invention, the treatment to remove autofluorescence with lipofuscin was performed. First, the paraffinized brain section was immersed in 0.25% KMnO4 solution for 20 minutes. It was washed with PBS for 2 minutes twice, immersed in a 0.1% K2S2O5/oxalic acid solution for approximately 5 minutes, and further washed with PBS for 2 minutes 3 times.
(4) From 100 μM solution of the compounds of the present invention dissolved in 50% ethanol, approximately 150 μl was dropped on the section to react for 10 minutes. After being immersed in tap water 5 times, it was mounted with Flour Save Reagent (Calbiochem) and examined with a fluorescence microscope (Nikon, ECLIPSE 80i). The images were taken with a digital camera (Nikon, Dxin1200F or Photometrics, Cool SNAP ES).

Assay [2] has as its target K18-ΔK280 aggregates (Homo sapiens (Human), UniProt P10636, DEL597-597). Description: Saturation binding test of THK-5105. As to conditions: [^18F] THK-5105 0.1 to 100 nM, K18-ΔK280 aggregates 200 nM, room temperature, one hour; read-out: dissociation constant Kd. Here is the method:
Regarding the binding of tau imaging probes to tau protein aggregates, a binding test was carried out and evaluated using a K18-ΔK280 construct which contained a 4-repeat structure involved in the formation of beta-sheet structures in the htau40 protein. For K18-ΔK280 (Martin von Bergen et al., THE JOURNAL OF BIOLOGICAL CHEMISTRY (2001), vol. 276, pp. 48165-48174; M. Goedert et al., NEURON (1989), vol. 3, pp. 519-526), an artificial gene fragment which was prepared based on its amino acid sequence was cloned into a pET-3a vector, the resulting plasmid was used to transform Escherichia coli BL21 (DE3) competent cells for protein expression, and the recombinant Escherichia coli cell was cultured to express K18-ΔK280. […]
K18-ΔK280 aggregates were made by preparing 20 μM PBS (pH 7.4) and incubating the K18-ΔK280 in the PBS at 37° C. for 4 days. The state where beta-sheet structures in K18-ΔK280 aggregates were formed was ascertained by thioflavin S fluorescence binding test. […]
In the binding test of [^18F] […] THK-5105 to K18-ΔK280 aggregates was calculated from the radioactivity of the filter which was measured on a gamma counter (AccuFLEX γ7000, Aloka). Non-specific binding was determined by adding unlabeled THK-5105 (at a final concentration of 2 μM) to the reaction system and performing experiments in a similar way.

For assay [3], the system named is neurofibrillary tangles (tau protein). In words: Autoradiography experiments using [^18F] THK-5105, [^18F] THK-5117 and [^18F] THK-5125. The class given is binding, human. As to conditions: hippocampus section and adjacent sections, higher magnification images. How it is done:
Paraffin-embedded sections of the brain from an Alzheimer's disease patient were deparaffinized, and then immersed in PBS for 10 minutes. Approximately 400 μCi/ml of each of [^18F] THK-5105, [^18F] THK-5117, and [^18F] THK-5125 was added dropwise to deparaffinized sections and allowed to react for 10 minutes at room temperature. After that, the sections were immersed in distilled water for 2 minutes, shaken lightly in 50% EtOH for 2 minutes, immersed again in distilled water for 2 minutes, and dried in a paraffin stretching device. The section was left overnight in contact with an imaging plate. Next day, the image was read with a BAS 5000 (Fujifilm Corporation). In addition, adjacent sections were immunostained with anti-phosphorylated tau antibody (AT8).

Sequence of K18-ΔK280 aggregates (P10636 other isoform, or with tags, fused parts or gaps del 597-597): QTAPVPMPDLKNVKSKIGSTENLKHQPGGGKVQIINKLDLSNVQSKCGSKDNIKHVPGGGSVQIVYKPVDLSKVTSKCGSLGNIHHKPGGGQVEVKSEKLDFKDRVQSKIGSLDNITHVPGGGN

For `CN(C)c1ccc(-c2ccc3cc(OCC(O)CF)ccc3n2)cc1` (stereo not drawn) [THK-5105, 6-[(3-fluoro-2-hydroxy)propoxy]-2-(4-dimethylaminophenyl)quinoline], the “binding to neurofibrillary tangles in the brain section of Alzheimer's disease patients (staining test)” value in assay [1] was “bind to neurofibrillary tangles specifically and selectively”. The Kd in assay [2] amounted to 3.9 nM. Also, the “correspondence of autoradiography / unlabeled staining image with anti-phosphorylated tau antibody (AT8) immunostaining” value in assay [3] is given as “corresponded well with the image of immunostaining with the anti-phosphorylated tau antibody”.
